Experimental data taken from patent publication US12201669B2, “Small molecule suppressors of APOE gene expression and cerebral vascular amyloid pathology” (Massachusetts Institute of Technology, priority 2021, dated 2025).

Tests used:
APOE4/5×FAD mice = details: mouse, in vivo
APOE [1] = details: E4 pericytes, earlier work of the inventors; cited from earlier work
APOE [2] = test: APOE expression by qRT-PCR in APOE4/4 pericytes treated with cyclosporin analogs; type: cell-based, human; details: compared with cyclosporin A and FK506
Text: FIGS. 2A-2D show APOE expression measured by qRT-PCR in APOE4/4 pericytes following treatment with Cyclosporin A (FIG. 2A), FK506 (FIG. 2B), Cyclosporin D (FIG. 2C), Cyclosporin H (FIG. 2D). One-way ANOVA with Bonferroni's Multiple Comparison test, 6 replicates per a timepoint.
FK506 and cyclosporin A can reduce the expression of APOE in human pericytes and brain cells and reverse or prevent cerebrovascular pathologies associated with Alzheimer's Disease such as cerebral amyloid angiopathy. Both cyclosporine A and FK506 have immunosuppressant activity. […] Results showing APOE expression after APOE4 pericytes were treated with Cyclosporin analogs for two weeks are depicted in FIG. 1. Following treatment with Cyclosporin A, FK506, Cyclosporin D, Cyclosporin H, APOE expression was measured by qRT-PCR in APOE4/4 pericytes (see FIGS. 2A-2D).

C=CC[C@@H]1/C=C(\C)C[C@H](C)C[C@H](OC)[C@H]2O[C@@](O)(C(=O)C(=O)N3CCCC[C@H]3C(=O)O[C@H](/C(C)=C/[C@@H]3CC[C@@H](O)[C@H](OC)C3)[C@H](C)[C@@H](O)CC1=O)[C@H](C)C[C@@H]2OC [FK506]
toxicity compared to cyclosporine treated mice (APOE4/5×FAD mice): less toxicity

O=C1C=CC(=O)C2=C1C1c3ccccc3C2c2ccccc21 [INCA6]
APOE gene expression (APOE [1]): reduction
APOE protein (APOE [1]): reduction

C/C=C/C[C@@H](C)[C@@H](O)[C@H]1C(=O)N[C@@H](C(C)C)C(=O)N(C)CC(=O)N(C)[C@@H](CC(C)C)C(=O)N[C@@H](C(C)C)C(=O)N(C)[C@@H](CC(C)C)C(=O)N[C@@H](C)C(=O)N[C@H](C)C(=O)N(C)[C@@H](CC(C)C)C(=O)N(C)[C@@H](CC(C)C)C(=O)N(C)[C@@H](C(C)C)C(=O)N1C [cyclosporin D]
kinetics of APOE expression reduction (APOE [2]): faster kinetics
potency in reducing APOE expression (able to reduce at lower doses) (APOE [2]): significantly more potent
